Measurements taken from patent US20230265107A1, “PB2 INHIBITOR, AND PREPARATION METHOD THEREFOR AND USE THEREOF” (priority 2020, published 2023).

Test system: virus IFV A/PR/8/34
Assay: Cytopathic effect (CPE) method, antiviral activity against influenza virus in MDCK cells, CCK-8 cell viability
Type: cell-based
Details: PR/8, MDCK, 120 h, read-out: EC50 (IFV A/PR/8/34) nM

First: O=C(O)[C@@H]1[C@@H](Nc2nc(-c3n[nH]c4ncc(F)cc34)nn3c(C4CC4)ccc23)[C@@H]2CC[C@H]1C1CC12 (stereo partly drawn) [Example 38, (1R,5S,6S,7S)-7-((7-cyclopropyl-2-(5-fluoro-1H-pyrazolo[3,4-b]pyridin-3-yl)pyrrolo[2,1-f][1,2,4]triazin-4-yl)amino)tricyclo[3.2.2.0^2,4]nonane-6-carboxylic acid]
Second: COCc1ccc2c(N[C@@H]3[C@@H](C(=O)O)[C@H]4CC[C@@H]3C3CC34)nc(-c3n[nH]c4ncc(F)cc34)nn12 (stereo partly drawn) [Example 32, (1R,5S,6S,7S)-7-((2-(5-fluoro-1H-pyrazolo[3,4-b]pyridin-3-yl)-7-(methoxymethyl)pyrrolo[2,1-f][1,2,4]triazin-4-yl)amino)tricyclo[3.2.2.0^2,4]nonane-6-carboxylic acid]
The EC50 of the first is 2.7-fold lower: 0.09 nM for the first, 0.24 nM for the second. The first is the more potent here.

Going from `O=C(O)[C@@H]1[C@@H](Nc2nc(-c3c[nH]c4ncc(F)cc34)nn3c(C(F)(F)F)ccc23)[C@@H]2CC[C@H]1C1CC12` (stereo partly drawn) [Example 30, (1R,5S,6S,7S)-7-((2-(5-fluoro-1H-pyrrolo[2,3-b]pyridin-3-yl)-7-(trifluoromethyl)pyrrolo[2,1-f][1,2,4]triazin-4-yl)amino)tricyclo[3.2.2.0^2′4]nonane-6-carboxylic acid] to `O=C(O)[C@@H]1[C@@H](Nc2nc(-c3n[nH]c4ncc(F)cc34)nn3c(C(F)(F)F)ccc23)[C@@H]2CC[C@H]1C1CC12` (stereo partly drawn) [Example 31, (1R,5S,6S,7S)-7-((2-(5-fluoro-1H-pyrazolo[3,4-b]pyridin-3-yl)-7-(trifluoromethyl)pyrrolo[2,1-f][1,2,4]triazin-4-yl)amino)tricyclo[3.2.2.0^2,4]nonane-6-carboxylic acid], the EC50 falls from 0.37 nM to 0.08 nM (4.6-fold). The second is the more potent here.

First: O=C(O)[C@H]1[C@H]2CC[C@H](CC2)[C@@H]1Nc1nc(-c2c[nH]c3ncc(F)cc23)nn2cc(C3CC3)cc12 [Example 8, (1R,2S,3S,4R)-3-((6-cyclopropyl-2-(5-fluoro-1H-pyrrolo[2,3-b]pyridin-3-yl)pyrrolo[2,1-f][1,2,4]triazin-4-yl)amino)bicyclo[2.2.2]octane-2-carboxylic acid]
Second: O=C(O)[C@H]1[C@H]2CC[C@H](CC2)[C@@H]1Nc1nc(-c2c[nH]c3ncc(F)cc23)nn2c(C(F)(F)F)ccc12 [Example 18, (1R,2S,3S,4R)-3-((2-(5-fluoro-1H-pyrrolo[2,3-b]pyridin-3-yl)-7-(trifluoromethyl)pyrrolo[2,1-f][1,2,4]triazin-4-yl)amino)bicyclo[2.2.2]octane-2-carboxylic acid]
The EC50 of the first is 2.7-fold higher: 0.8 nM for the first, 0.3 nM for the second. The second is the more potent here.

Work on `COCc1ccc2c(N[C@@H]3[C@@H](C(=O)O)[C@H]4CC[C@@H]3C3CC34)nc(-c3c[nH]c4ncc(F)cc34)nn12` (stereo partly drawn) [Example 20, (1R,5S,6S,7S)-7-((2-(5-fluoro-1H-pyrrolo[2,3-b]pyridin-3-yl)-7-(methoxymethyl)pyrrolo[2,1-f][1,2,4]triazin-4-yl)amino)tricyclo[3.2.2.0^2,4]nonane-6-carboxylic acid] yielded an EC50 of 0.3 nM.
